In patent US6444677B2, “5-membered heteroaryl substituted 1,4-dihydropyridine compounds as bradykinin antagonists” (Pfizer Inc., priority 1999, dated 2002):
Counter-ions that a name gives are not always drawn.

Compound	melting point
COC(=O)C1=C(CCc2nccs2)NC(CC(=O)N2CCN(CC3(C#N)CCCCC3)CC2)=C(C(=O)OC)C1c1c(Cl)cccc1Cl (stereo not shown) (as salt: HCl) [Example 1, Dimethyl 2-[2-[4-[(1-cyanocyclohexyl)methyl]-1-piperazinyl]-2-oxoethyl]-4-(2,6-dichlorophenyl)-6-[2-(1,3-thiazol-2-yl)ethyl]-1,4-dihydro-3,5-pyridinedicarboxylate]	211 to 213 °C (dec.)
COC(=O)C1=C(CCc2nccs2)NC(CC(=O)N2CCN(CC3(CN)CCCCC3)CC2)=C(C(=O)OC)C1c1c(Cl)cccc1Cl (stereo not shown) (as salt: HCl) [Example 2, Dimethyl 2-[2-[4-[[1-(aminomethyl)cyclohexyl]methyl]-1-piperazinyl]-2-oxoethyl]-4-(2,6-dichlorophenyl)-6-[2-(1,3-thiazol-2-yl)ethyl]-1,4-dihydro-3,5-pyridinedicarboxylate]	206 to 210 °C (dec.)
CCNCC1(CN2CCN(C(=O)CC3=C(C(=O)OC)C(c4c(Cl)cccc4Cl)C(C(=O)OC)=C(CCc4nccs4)N3)CC2)CCCCC1 (stereo not shown) (as salt: HCl) [Example 3, Dimethyl 4-(2,6-dichlorophenyl)-2-[2-[4-[[1-[(ethylamino)methyl]cyclohexyl]methyl]-1-piperazinyl]-2-oxoethyl]-6-[2-(1,3-thiazol-2-yl)ethyl]-1,4-dihydro-3,5-pyridinedicarboxylate]	206 to 210 °C (dec.)
COC(=O)C1=C(CCc2nccs2)NC(CC(=O)N2CCN(CC3(N)CCCCC3)CC2)=C(C(=O)OC)C1c1c(Cl)cccc1Cl (stereo not shown) (as salt: HCl) [Example 6, Dimethyl 2-[2-[4-[(1-aminocyclohexyl)methyl]-1-piperazinyl]-2-oxoethyl]4-(2,6-dichlorophenyl)-6-[2-(1,3-thiazol-2-yl)ethyl]-1,4-dihydro-3,5-pyridinedicarboxylate]	210 to 220 °C (dec.)
COC(=O)C1=C(CCc2nccs2)NC(CC(=O)N2CCN(CC3(CNC4CCCC4)CCCC3)CC2)=C(C(=O)OC)C1c1c(Cl)cccc1Cl (stereo not shown) (as salt: HCl) [Example 11, Dimethyl 2-[2-[4-[[1-[(cyclopentylamino)methyl]cyclopentyl]methyl]-1-piperazinyl]-2-oxoethyl]-4-(2,6dichlorophenyl)-6-[2-(1,3-thiazol-2-yl)ethyl]-1,4-dihydro-3,5-pyridinedicarboxylate]	174 to 177 °C (dec.)
CCN(CC)C1C2CCC1CC(N1CCN(C(=O)CC3=C(C(=O)OC)C(c4c(Cl)cccc4Cl)C(C(=O)OC)=C(CCc4nccs4)N3)CC1)C2 (stereo not shown) (as salt: HCl) [Example 12, Dimethyl 4-(2,6-dichlorophenyl)-2-[2-[4-(8-(diethylamino)bicyclo [3.2.1]oct-3-yl)-1-piperazinyl]-2-oxoethyl]-6-[2-(1,3-thiazol-2-yl)ethyl]-1,4-dihydro-3,5-pyridinedicarboxylate]	200 to 205 °C (dec.)
COC(=O)C1=C(CCc2nccs2)NC(CC(=O)N2CCN(CC(C)(C)CNS(C)(=O)=O)CC2)=C(C(=O)OC)C1c1c(Cl)cccc1Cl (stereo not shown) [Example 13, Dimethyl 4-(2,6-dichlorophenyl)-2-[2-[4-[2,2-dimethyl-3-[(methylsulfonyl)amino]propyl]-1-piperazinyl]-2-oxoethyl]-6-[2-(1,3-thiazol-2-yl)ethyl]-1,4-dihydro-3,5-pyridinedicarboxylate]	132 to 136 °C
COC(=O)C1=C(CCc2nccs2)NC(CC(=O)N2CCN(CC(C)(C)C#N)CC2)=C(C(=O)OC)C1c1c(Cl)cccc1Cl (stereo not shown) [Example 15, Dimethyl 2-[2-[4-(2-cyano-2-methylpropyl)-1-piperazinyl]-2-oxoethyl]-4-(2,6-dichlorophenyl)-6-[2-(1,3-thiazol-2-yl)ethyl]-1,4-dihydro-3,5-pyridinedicarboxylate]	120 to 122 °C
COC(=O)C1=C(CCc2nccs2)NC(CC(=O)N2CCN(CC(C)(C)CNC(C)=O)CC2)=C(C(=O)OC)C1c1c(Cl)cccc1Cl (stereo not shown) [Example 16, Dimethyl 2-[2-[4-[3-(acetylamino)-2,2-dimethylpropyl]-1-piperazinyl]-2-oxoethyl]-4-(2,6-dichlorophenyl)-6-[2-(1,3-thiazol-2-yl)ethyl]-1,4-dihydro-3,5 pyridinedicarboxylate]	104 to 107 °C

More lines, now with the values ahead:

melting point	Compound
179 °C (dec.)	COC(=O)C1=C(CCc2nccs2)NC(CC(=O)N2CCN(CCC(C)(C)N3CCCC3=O)CC2)=C(C(=O)OC)C1c1c(Cl)cccc1Cl (stereo not shown) (as salt: HCl) [Example 20, Dimethyl 4-(2,6-dichlorophenyl)-2-[2-[4-[3-methyl-3-(2-oxo-1-pyrrolidinyl)butyl]-1-piperazinyl]-2-oxoethyl]-6-[2-(1,3-thiazol-2-yl)ethyl]-1,4-dihydro-3,5-pyridinedicarboxylate]
185 to 190 °C (dec.)	COC(=O)C1=C(CCc2nccs2)NC(CC(=O)N2CCN(CCCN3CCCC3=O)CC2)=C(C(=O)OC)C1c1c(Cl)cccc1Cl (stereo not shown) (as salt: HCl) [Example 22, Dimethyl 4-(2,6-dichlorophenyl)-2-[2-oxo-2-[4-[3-(2-oxo-1-pyrrolidinyl)propyl]-1-piperazinyl]ethyl]-6-[2-(1,3-thiazol-2-yl)ethyl]-1,4-dihydro-3,5-pyridinedicarboxylate]
182 to 184 °C (dec.)	COC(=O)C1=C(CCc2nccs2)NC(CC(=O)N2CCN(C3CCC(N4CCCC4=O)CC3)CC2)=C(C(=O)OC)C1c1c(Cl)cccc1Cl (stereo not shown) (as salt: HCl) [Example 23, Dimethyl 4-(2,6-dichlorophenyl)-2-[2-oxo-2-[4-[4-(2-oxo-1-pyrrolidinyl)cyclohexyl]-1-piperazinyl]ethyl]-6-[2-(1,3-thiazol-2-yl)ethyl]-1,4-dihydro-3,5-pyridinedicarboxylate]
188 to 190 °C (dec.)	COC(=O)C1=C(CCc2nccs2)NC(CC(=O)N2CCN(CCC3(O)CCCCC3)CC2)=C(C(=O)OC)C1c1c(Cl)cccc1Cl (stereo not shown) (as salt: HCl) [Example 28, Dimethyl 4-(2,6-dichlorophenyl)-2-[2-[4-[2-(1-hydroxycyclohexyl)ethyl]-1-piperazinyl]-2-oxoethyl]-6-[2-(1,3-thiazol-2-yl)ethyl]-1,4-dihydro-3,5-pyridinedicarboxylate]
188 to 193 °C (dec.)	COC(=O)C1=C(CCc2nccs2)NC(CC(=O)N2CCN(CCCN3C(=O)CCC3C)CC2)=C(C(=O)OC)C1c1c(Cl)cccc1Cl (stereo not shown) (as salt: HCl) [Example 29, Dimethyl 4-(2,6-dichlorophenyl)-2-[2-[4-[3-(2-methyl-5-oxo1-pyrrolidinyl)propyl]-1-piperazinyl]-2-oxoethyl]-6-[2-(1,3-thiazol-2-yl)ethyl]-1,4-dihydro-3,5-pyridinedicarboxylate]
175 to 180 °C (dec.)	COC(=O)C1=C(CCc2nccs2)NC(CC(=O)N2CCN(CCC3(N4CCCC4=O)CCCC3)CC2)=C(C(=O)OC)C1c1c(Cl)cccc1Cl (stereo not shown) (as salt: HCl) [Example 33, Dimethyl 4-(2,6-dichlorophenyl)-2-[2-oxo-2-[4-[2-[1-(2-oxo-1-pyrrolidinyl)cyclopentyl]ethyl]-1-piperazinyl]ethyl]-6-[2-(1,3-thiazol-2-yl)ethyl]-1,4-dihydro-3,5-pyridinedicarboxylate]
195 to 200 °C (dec.)	CCN(CC)C1(CCN2CCN(C(=O)CC3=C(C(=O)OC)C(c4c(Cl)cccc4Cl)C(C(=O)OC)=C(CCc4nccs4)N3)CC2)CCCC1 (stereo not shown) (as salt: HCl) [Example 34, Dimethyl 4-(2,6-dichlorophenyl)2-[2-[4-[2-[1-(diethylamino)cyclopentyl]ethyl]-1-piperazinyl]-2-oxoethyl]-6-[2-(1,3-thiazol-2-yl)ethyl]-1,4-dihydro-3,5-pyridinedicarboxylate]
169 to 177 °C (dec.)	COC(=O)C1=C(CCc2nccs2)NC(CC(=O)N2CCN(CCCCN3CCOCC3)CC2)=C(C(=O)OC)C1c1c(Cl)cccc1Cl (stereo not shown) (as salt: HCl) [Example 38, Dimethyl 4-(2,6-dichlorophenyl)-2-[2-[4-[4-(4-morpholinyl)butyl]-1-piperazinyl]-2-oxoethyl]-6-[2-(1,3-thiazol-2-yl)ethyl]-1,4-dihydro-3,5-pyridinedicarboxylate]
151 to 155 °C (dec.)	CCC(CC)(CCN1CCN(C(=O)CC2=C(C(=O)OC)C(c3c(Cl)cccc3Cl)C(C(=O)OC)=C(CCc3nccs3)N2)CC1)N1CCCC1=O (stereo not shown) (as salt: HCl) [Example 39, Dimethyl 4-(2,6-dichlorophenyl)-2-[2-[4-[3-ethyl-3-(2-oxo-1-pyrrolidinyl)pentyl]-1-piperazinyl]-2-oxoethyl]-6-[2-(1,3-thiazol-2-yl)ethyl]-1,4-dihydro-3,5-pyridinedicarboxylate]
158 to 163 °C (dec.)	COC(=O)C1=C(CCc2nccs2)NC(CC(=O)N2CCN(CCC3(C(N)=O)CCCC3)CC2)=C(C(=O)OC)C1c1c(Cl)cccc1Cl (stereo not shown) (as salt: HCl) [Example 43, Dimethyl 2-[2-[4-[2-[1-(aminocarbonyl)cyclopentyl]ethyl]-1-piperazinyl]-2-oxoethyl]-4-(2,6-dichlorophenyl)-6-[2-(1,3-thiazol-2-yl)ethyl]-1,4-dihydro-3,5-pyridinedicarboxylate]
162 to 163 °C (dec.)	CCNCC1(C2CCN(C(=O)CC3=C(C(=O)OC)C(c4c(Cl)cccc4Cl)C(C(=O)OC)=C(CCc4nccs4)N3)CC2)CCCCC1 (stereo not shown) (as salt: HCl) [Example 45, Dimethyl 4-(2,6-dichlorophenyl)-2-[2-[4-[1-[(ethylamino)methyl]cyclohexyl]-1-piperidinyl]-2-oxoethyl]-6-[2-(1,3-thiazol-2-yl)ethyl]-1,4-dihydro-3,5-pyridinedicarboxylate]
161 to 164 °C	COC(=O)C1=C(CCc2nccs2)NC(CC(=O)N2CCN(CC3(CN)CCCC3)CC2)=C(C(=O)OC)C1c1c(Cl)cccc1Cl (stereo not shown) [Example 17, Dimethyl 2-[2-[4-[[1-(aminomethyl)cyclopentyl]methyl]-1-piperazinyl]-2-oxoethyl]-4-(2,6-dichlorophenyl)-6-[2-(1,3-thiazol-2-yl)ethyl]-1,4-dihydro-3,5-pyridinedicarboxylate]
158 to 162 °C	COC(=O)C1=C(CCc2nccs2)NC(CC(=O)N2CCN(CC(C)(C)CN)CC2)=C(C(=O)OC)C1c1c(Cl)cccc1Cl (stereo not shown) [Example 18, Dimethyl 2-[2-[4-(3-amino-2,2-dimethylpropyl)-1-piperazinyl]-2-oxoethyl]-4-(2,6-dichlorophenyl)-6-[2-(1,3-thiazol-2-yl)ethyl]-1,4-dihydro-3,5-pyridinedicarboxylate]
